For one data set, the system named is 5-HT₃ receptor. Nature of the data set: Suppression of 5-HT-induced reflex bradycardia in urethane-anesthetized rats (5-HT₃ receptor antagonism in vivo). More on the design: species or system Male Wistar rats. As to conditions: 5-HT i.v. 2 mins after. How it is done: Male Wistar rats were urethane-anesthetized and fixed. Cannulas were inserted to carotid artery and thigh vein as used for the recording of blood pressure end heart beat, and for the administration of compounds, respectively.
Several amounts of compound of the present invention were administered to the vein or duodenum. 5-HT was administered rapidly to the vein, 2 mins after. The suppression effect of the compounds was confirmed by the measurement of reflex bradycardia generated. (Nature 316, 11 (1985).)

Data set [1] can be described thus: Acute toxicity (LD₅₀) in mice. As to conditions: mouse, in vivo. How it is done: It was confirmed that the toxicity of the compounds of the present invention were very low. Therefore, the compounds of the present invention may be considered to be sufficiently safe and suitable for pharmaceutical use.
For example, the values of acute toxicity (LD₅₀) of 2-(5-methylimidazol-4-ylmethyl)-5-methyl-1,2-dihydro-γ--carbolin-1-one hydrochloride was 290 mg/kg animal body weight by oral administration and 48 mg/kg animal body weight by intravenous administration in mice, respectively.

Counter-ions that a name gives are not always drawn.

Consider 1 molecule from EP0392663A1, “Carboline derivative as a 5-HT3 receptor antagonist” (ONO PHARMACEUTICAL CO., LTD., priority 1989, dated 1990).

By LD50 is commonly meant the dose at which mortality reaches 50%. Lower therefore signals a more toxic substance.

Take `Cc1[nH]cnc1Cn1ccc2c(c1=O)c1ccccc1n2C` [2-(5-methylimidazol-4-ylmethyl)-5-methyl-1,2-dihydro-γ-carbolin-1-one hydrochloride]: in the data set with 5-HT₃ receptor (compound administered to the duodenum), the ID₅₀ i.d. was found to be 7.7 mg/kg. This molecule came in with an ID₅₀ i.v. in the data set on 5-HT₃ receptor (compound administered to the vein) of 0.3 mg/kg. Besides, the median lethal dose (LD50) came to 48 mg/kg in data set [1] (intravenous administration) and 290 mg/kg in data set [1] (oral administration).
